Patent US20240342080A1, “COMPOSITIONS AND METHODS FOR INHIBITING HUMAN BLOOD PROTEIN VITRONECTIN” (Sanford Burnham Prebys Medical Discovery Institute, priority 2021, published 2024)

What was measured:
[1] = test system: HAP deposited on spherules; assay: In vitro drusen model: production of HAP-protein-lipid proto-spherules (fluorescence emission reflects HAP deposited); assay type: biochemical
Excerpt: (§1) An in vitro assay was designed to produce proto-spherule like those found in AMD drusen. HAP was detected with a specific fluorescent dye. This assay was used to discover inhibitors.
(§2) In Vitro Drusen Model: Production of HAP-Protein-Lipid Proto-Spherules
(§3) In this model, fluorescence emission reflected the amount of HAP deposited on spherules. The results are show in FIG. 1. […] Pyrophosphate (PPi) is a mineralization inhibitor and serves as negative control. There are many HAP-binding proteins but Vn is unique: it plays an active role in HAP mineralization.

[2] = target: T1, human blood protein vitronectin (Vn) (Homo sapiens, UniProt P04004); assay: In vitro drusen model used to test Vn antibodies as inhibitors of Vn-dependent HAP deposition; assay type: biochemical; conditions: FIG. 2
T1 construct: made in house; host or cells: Escherichia coli
T1 sequence (P04004 20-478): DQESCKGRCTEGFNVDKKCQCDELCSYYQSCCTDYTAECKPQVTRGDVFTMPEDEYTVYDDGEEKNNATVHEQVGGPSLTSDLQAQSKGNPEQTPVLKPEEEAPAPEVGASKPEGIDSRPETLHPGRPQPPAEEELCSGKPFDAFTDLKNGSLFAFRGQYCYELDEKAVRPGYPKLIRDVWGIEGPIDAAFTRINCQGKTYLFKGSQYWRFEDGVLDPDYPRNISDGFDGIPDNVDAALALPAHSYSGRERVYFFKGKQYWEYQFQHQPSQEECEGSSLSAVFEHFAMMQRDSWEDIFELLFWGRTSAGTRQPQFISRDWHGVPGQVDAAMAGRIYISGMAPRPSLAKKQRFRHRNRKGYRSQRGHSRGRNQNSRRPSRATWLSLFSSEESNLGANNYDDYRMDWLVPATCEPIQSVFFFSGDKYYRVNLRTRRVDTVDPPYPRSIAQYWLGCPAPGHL
Method: as §1
Vn was prepared from Escherichia coli. All buffer solutions were prepared with Milli-Q deionized water. For calcium-free preparations, the protein was folded by dropwise dilution from buffer T1 (20 mM Tris HCl pH 8, 6 M guanidine, 10 mM dithiothreitol) into buffer T2 (20 mM Tris HCl pH 8, 500 mM ArgCl, 300 mM NaCl, 5 mM β-mercaptoethanol, 1 mM hydroxyethyldisulfide), followed by dialysis into buffer MI (20 mM MES, pH 6.5, 300 mM NaCl) and size exclusion chromatography (Superdex 200 10/300 GL, GE Healthcare). Calcium-containing samples were prepared by supplementing buffer MI with CaCl2).
as §2, §3
This assay was used to test Vn antibodies (need details on Abc, Abm and Abn and IGF II) as potential inhibitors.

Substance	effect on HAP deposition / mineralization on spherules (fluorescence emission) ([1]; FIG. 1)	effect on HAP deposition / mineralization on spherules (fluorescence emission) ([1]; FIG. 1, listed as Vn)	effect on HAP deposition (fluorescence emission) [2]
Amyloid-β (Aβ): Amyloid-β, comparison protein in the in vitro drusen model [reference compound]	no significant effect on HAP mineralization	–	–
Vitronectin: human blood protein vitronectin, prepared from Escherichia coli	increases HAP deposition on spherules in a dose-dependent and time-dependent manner	promotes HAP formation	promotes HAP deposition in a dose- and time-dependent manner
